# Source: ChEMBL document CHEMBL1154867, “Cytotoxic halogenated metabolites from the Brazilian red alga Laurencia catarinensis” (J Nat Prod, 2010)
# Assays:
# Assay type in all cases: functional, cell-based
# [1] = tested on: HT-29; experiment: Cytotoxicity against human HT-29 cells after 24 hrs by MTT assay; settings: HT-29, 24 h
# [2] = tested on: MCF7; experiment: Cytotoxicity against human MCF7 cells after 24 hrs by MTT assay; settings: MCF7, 24 h
# [3] = tested on: A-431; experiment: Cytotoxicity against human A431 cells after 24 hrs by MTT assay; settings: A-431, 24 h
SMILES,IC50 [1] [µM],IC50 [2] [µM],IC50 [3] [µM]
CC(=O)O[C@H]1C[C@@](C)(Cl)[C@H](Br)C[C@@H]1[C@]1(C)OC(C)(C)[C@@H](Br)C[C@@H]1O,12.4,11.7,13.1
CC(=O)O[C@H]1C[C@H](Br)C(C)(C)O[C@@]1(C)[C@H]1C[C@@H](Br)[C@](C)(Cl)C[C@@H]1O,70.4,73.6,72.1
CC(=O)O[C@H]1C[C@@](C)(Cl)[C@H](Br)C[C@@H]1[C@]1(C)OC(C)(C)[C@@H](Br)C[C@@H]1OC(C)=O,> 100,> 100,> 100
CC(=O)O[C@H]1C[C@@](C)(Cl)[C@H](Br)C[C@@H]1[C@@]1(C)CC[C@H](Br)C(C)(C)O1,48.8,52.4,54.9
CC1(C)O[C@@](C)([C@@H]2CC[C@@](C)(Cl)[C@H](Br)C2)CC[C@H]1Br,> 100,> 100,> 100
CO[C@@]1(C)OC(=O)C=C1[C@@H]1CC[C@@](C)(Cl)[C@H](Br)C1 (relative stereo),85.6,89,91.7
CO[C@]1(C)OC(=O)C=C1[C@@H]1CC[C@@](C)(Cl)[C@H](Br)C1 (relative stereo),> 100,> 100,> 100
CC(=O)O[C@H]1C[C@H](Br)C(C)(C)O[C@@]1(C)[C@@H]1CC[C@@](C)(Cl)[C@H](Br)C1 [ACETYLCAESPITOL],16.1,17.6,17.4
CC1(C)C=CC(=O)[C@](C)([C@@H]2CC[C@@](C)(Cl)[C@H](Br)C2)O1 [CAESPITENONE],18.9,19.7,21.6
CC1(C)O[C@](C)([C@H]2CC[C@](C)(Cl)[C@@H](Br)C2)[C@H](O)C[C@H]1Br [CAESPITOL],7.6,9.7,10.2
CC1(C)O[C@@](C)([C@@H]2CC[C@](C)(Br)[C@@H](Cl)C2)CC[C@@H]1Br [DEOXY ISOCAESPITOL],27.3,31.7,30.7
CC1(C)O[C@@](C)([C@@H]2CC[C@@](C)(Cl)[C@H](Br)C2)CC[C@@H]1Br [DEOXYCAESPITOL],12.5,11.2,13.1
C[C@]1(O)OC(=O)C=C1[C@@H]1CC[C@@](C)(Cl)[C@H](Br)C1 [FUROCAESPITANELACTOL],> 100,> 100,> 100
CC1(C)O[C@@](C)([C@@H]2CC[C@](C)(Br)[C@@H](Cl)C2)[C@@H](O)C[C@@H]1Br [ISOCAESPITOL],> 100,> 100,> 100
CCCCCCCCCCCCCCCCOP(=O)([O-])OCC[N+](C)(C)C [MILTEFOSINE],48.6,42.3,53.7
